From PMC12516397 (ACS Medicinal Chemistry Letters, 2025) come the findings set out here.

No end group written: not given here.

Data set [1] has as its system Vero E6 cells. The settings on record: 72 h.
The conditions of data set [2]: pH 5.
In data set [3] the target is SARS-CoV-2 main protease (Mpro) (Severe acute respiratory syndrome coronavirus 2, UniProt P0DTD1). As to the kind of experiment: biochemical.

One may read the IC50 as the concentration that gives 50% inhibition. Low values mean greater potency in that assay, high ones weaker potency in that assay. For FLQWFSKFLGRIL-NH2 [TLP-1], the “CC50, cellular viability” value in data set [1] turned out to be 4.65 µM. In addition, the “Solubility” value in data set [2] is on record as “limited peptide solubility”. This substance also yielded an IC50 in data set [3] of 11.4 ± 1.5 µM.

Consider “FVQWFSKFLGRIL-NH2 [Temporin L, reference compound]”, for which the “CC50, cellular viability” value in data set [1] was determined as 6.78 µM. Moreover, half-maximal inhibition in data set [3] (IC50) required 39 ± 4.5 µM.

Consider SAYWQWFSKFLGRIL-NH2 [TLP-2], for which the “CC50, cellular viability” value in data set [1] was 2.56 µM. The “Solubility” value in data set [2] is recorded as “limited peptide solubility”. Moreover, in data set [3], the IC50 was determined as 11.5 ± 1 µM.

As to SAFWQWFSKFLGR-NH2 [TLP-3], the “CC50, cellular viability” value in data set [1] came out at 14.91 µM. Also, in data set [2], the “Solubility” value was “limited peptide solubility”. For the same substance, the midpoint of inhibition in data set [3], the IC50, lay at 7 ± 1.5 µM.
